The values that follow come from patent US20090221596A1, “Substtituted aryl oximes” (priority 2006, published 2009).

Each structure is given as a SMILES string.

The test system of the first assay is Spodoptera frugiperda. As to the kind of experiment: Spodoptera frugiperda test (spray treatment). Format: in vivo. The conditions noted are these: foliar, 168 h, 500 g a. i./ha, 7 d, sprayed maize leaf discs, army worm caterpillars, read-out: % 7 d (activity; 100% = all caterpillars killed). An excerpt: An appropriate preparation of active compound is produced by mixing 1 part by weight of active compound with the stated amounts of solvent and emulsifier and diluting the concentrate to the desired concentration using emulsifier-containing water.
Maize leaf discs (Zea mays) are sprayed with a preparation of active compound at the desired concentration and after they have dried off they are populated with caterpillars of the army worm (Spodoptera frugiperda).
After the desired time the activity is measured in %. Here 100% means that all of the caterpillars have been killed; 0% means that no caterpillar has been killed.
Consider `COc1c(Cl)cc(OCC=C(Cl)Cl)cc1/C(C)=N/OCCOc1ccc(C(F)(F)F)cn1` [Example 21], for which the pest or weed control at 500 g/ha turned out to be 100%.

`COc1c(Cl)cc(OCC=C(Cl)Cl)cc1/C(C)=N/OCCCCOc1ccc(C(F)(F)F)cn1` [Example 22]: the pest or weed control at 500 g/ha was 100%.

Consider `COc1c(Cl)cc(OCC=C(Cl)Cl)cc1/C(C)=N/OCCCCOc1ncc(C(F)(F)F)cc1Cl` [Example 23], for which the pest or weed control at 500 g/ha turned out to be 100%.

Take `COc1c(Cl)cc(OCC=C(Cl)Cl)cc1/C(C)=N/OCCCCOc1c(Cl)cc(C(F)(F)F)cc1Cl` [Example 24]: the pest or weed control at 500 g/ha came to 100%.

For `COc1c(Cl)cc(OCC=C(Cl)Cl)cc1/C(C)=N/OCc1ccc(OC(F)(F)F)cc1` [Example 29], the pest or weed control at 500 g/ha was found to be 100%.

For the molecule `COc1c(Cl)cc(OCC=C(Cl)Cl)cc1/C(C)=N/OCc1ccc(F)c(Oc2ccccc2)c1` [Example 30], the pest or weed control at 500 g/ha turned out to be 100%.

For the molecule `COc1c(Cl)cc(OCC=C(Cl)Cl)cc1/C(C)=N/OCCc1ccc([N+](=O)[O-])cc1` [Example 39], the pest or weed control at 500 g/ha came out at 100%.

For `COc1c(Cl)cc(OCC=C(Cl)Cl)cc1/C(C)=N/OCCc1ccc(NC(=O)C2(C)CC2)cc1` [Example 40], the pest or weed control at 500 g/ha was 100%.

As for `COc1c(Cl)cc(OCC=C(Cl)Cl)cc1/C(C)=N/OCCc1ccc(NC(=O)OC(C)(C)C)cc1` [Example 41], the pest or weed control at 500 g/ha amounted to 100%.

On to `COc1c(Cl)cc(OCC=C(Cl)Cl)cc1/C(C)=N/OCCCc1ccc(F)cc1` [Example 42], for which the pest or weed control at 500 g/ha came to 100%.

Regarding `COc1c(Cl)cc(OCC=C(Cl)Cl)cc1/C(C)=N/OC(C)c1ccccc1` (centres unmarked) [Example 45], the pest or weed control at 500 g/ha is 83%.

Turning to `COc1c(Cl)cc(OCC=C(Cl)Cl)cc1/C(C)=N/OCc1ccc(Oc2ccc(SC)cc2)cc1` [Example 49], the pest or weed control at 500 g/ha amounted to 100%.

Another assay has as its system Phaedon cochleariae. As to the kind of experiment: Phaedon test (spray treatment). Format: in vivo. Conditions: 500 g a. i./ha, sprayed Chinese cabbage leaves, mustard beetle larvae. An excerpt: [table] An appropriate preparation of active compound is produced by mixing 1 part by weight of active compound with the stated amounts of solvent and emulsifier and diluting the concentrate to the desired concentration using emulsifier-containing water. Chinese cabbage leaves (Brassica pekinensis) are sprayed with a preparation of active compound at the desired concentration and after they have dried off they are populated with larvae of the mustard beetle (Phaedon cochleariae). After the desired time the activity is measured in %.
In the case of `COc1c(Cl)cc(OCC=C(Cl)Cl)cc1C(=NO)C(C)C` (racemic) [Example 14, 1-[3-Chloro-5-(3,3-dichloroallyloxy)-2-methoxyphenyl]-2-methylpropan-1-one oxime], the “% 7 d (activity; 100% = all beetle larvae killed)” value stood at 100%.

In the next assay the test system is Aedes Aegypti. As to the kind of experiment: Aedes Aegypti test. Format: in vivo. The conditions noted are these: 20 g a. i./ha, third larval stage (L3). The method, then:
An appropriate preparation of active compound is produced by mixing the active compound with the stated amounts of solvent and diluting the concentrate to the desired concentration with water.
The Aedsae aegypti larvae (third larval stage, L3) are treated with a preparation of active compound at the desired concentration.
After the desired time the activity is measured in %. Here 100%, means that all of the Aedsae aegypti have been killed; 0% means that no Aedsae aegypti have been killed, and -1 denotes that no evaluation was possible.
As to `COc1c(Cl)cc(OCC=C(Cl)Cl)cc1C(=NO)C(C)C` (racemic) [Example 14, 1-[3-Chloro-5-(3,3-dichloroallyloxy)-2-methoxyphenyl]-2-methylpropan-1-one oxime], the “% 2 d (activity; 100% = all Aedes aegypti killed)” value is given as 80%.
